Laboratory results as given in patent US20230227427A1, “IL-17A MODULATORS” (SANOFI, priority 2010, published 2023).

These molecules were tested against T1, human recombinant IL-17A (Homo sapiens, UniProt Q16552) (assay: IL-17A AlphaLISA assay (block binding of IL-17A to its receptor IL-17RA)). Settings: compounds pre-incubated with the IL-17A for 30 min (indicated by * in Table A).
T1 construct: purchased R&D Systems 7955-IL/CF
T1 sequence (Q16552 24-155): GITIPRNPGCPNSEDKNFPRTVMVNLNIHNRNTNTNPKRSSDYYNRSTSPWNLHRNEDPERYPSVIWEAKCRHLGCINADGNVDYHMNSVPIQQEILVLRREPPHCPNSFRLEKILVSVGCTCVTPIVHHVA
Method in brief: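 PBS with 0.05% Tween-20 and 0.1% BSA. IL-17A stock 7.5 nM, IL-17RA/Fc stock 5 nM; compound–cytokine pre-incubation 24 h at RT, or 30 min where marked, then 90 min with receptor. pIC50 from 4-parameter logistic AlphaLISA signal, normalised to DMSO and 6 μM reference inhibitor.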

AlphaLISA pIC50	Compound
6.8*	CCn1nccc1C(=O)N[C@H](C(=O)Nc1cnc(-c2c(C)cnn2C)c(F)c1)[C@H]1CC[C@H](C)CC1 [Example 189, N—((S)-2-((6-(1,4-dimethyl-1H-pyrazol-5-yl)-5-fluoropyridin-3-yl)amino)-1-((1r,4S)-4-methylcyclohexyl)-2-oxoethyl)-1-ethyl-1H-pyrazole-5-carboxamide]

Same assay, conditions: compounds pre-incubated with the IL-17A for 30 min (indicated by * in Table A); read-out: AlphaLISA pIC50 (converted)

IC50 [nM]	Compound
39.8	Cc1cnn(C)c1-c1ccc(NC(=O)[C@@H](NC(=O)c2conc2C(C)C)[C@H]2CC[C@H](C)CC2)nc1 [Example 191, N—((S)-2-((5-(1,4-dimethyl-1H-pyrazol-5-yl)pyridin-2-yl)amino)-1-((1r,4S)-4-methylcyclohexyl)-2-oxoethyl)-3-isopropylisoxazole-4-carboxamide]
200	Cc1cnn(C)c1-c1ccc(NC(=O)[C@@H](NC(=O)c2conc2C(C)(C)C)[C@H]2CC[C@H](C)CC2)nc1 [Example 192, 3-(tert-butyl)-N—((S)-2-((5-(1,4-dimethyl-1H-pyrazol-5-yl)pyridin-2-yl)amino)-1-((1r,4S)-4-methylcyclohexyl)-2-oxoethyl)isoxazole-4-carboxamide]
251	Cn1nccc1C(=O)N[C@H](C(=O)Nc1ccc(-c2c(C#N)cnn2C)cn1)[C@H]1CC[C@H](C)CC1 [Example 193, N—((S)-2-((5-(4-cyano-1-methyl-1H-pyrazol-5-yl)pyridin-2-yl)amino)-1-((1r,4S)-4-methylcyclohexyl)-2-oxoethyl)-1-methyl-1H-pyrazole-5-carboxamide]
158	Cc1cnn(C)c1-c1ccc(NC(=O)[C@@H](NC(=O)c2conc2C(F)(F)F)[C@H]2CC[C@H](C)CC2)nc1 [Example 194, N—((S)-2-((5-(1,4-dimethyl-1H-pyrazol-5-yl)pyridin-2-yl)amino)-1-((1r,4S)-4-methylcyclohexyl)-2-oxoethyl)-3-(trifluoromethyl)isoxazole-4-carboxamide]
501	Cc1nn(C)c(-c2ccc(NC(=O)[C@@H](NC(=O)c3ccnn3C)C3CCCCCC3)nc2)c1C [Example 195, (S)—N-(1-cycloheptyl-2-oxo-2-((5-(1,3,4-trimethyl-1H-pyrazol-5-yl)pyridin-2-yl)amino)ethyl)-1-methyl-1H-pyrazole-5-carboxamide]
251	Cc1nsc(C)c1-c1ccc(NC(=O)[C@@H](NC(=O)c2ccnn2C)[C@H]2CC[C@H](C)CC2)nc1 [Example 196, N—((S)-2-((5-(3,5-dimethylisothiazol-4-yl)pyridin-2-yl)amino)-1-((1r,4S)-4-methylcyclohexyl)-2-oxoethyl)-1-methyl-1H-pyrazole-5-carboxamide]
200	CCn1nccc1C(=O)N[C@H](C(=O)Nc1ccc(-c2c(CO)cnn2C)cn1)C1CCCCCC1 [Example 198, (S)—N-(1-cycloheptyl-2-((5-(4-(hydroxymethyl)-1-methyl-1H-pyrazol-5-yl)pyridin-2-yl)amino)-2-oxoethyl)-1-ethyl-1H-pyrazole-5-carboxamide]
100	CCn1nccc1C(=O)N[C@H](C(=O)Nc1ccc(-c2c(Cl)cnn2C)cn1)[C@H]1CC[C@H](C)CC1 [Example 199, N—((S)-2-((5-(4-chloro-1-methyl-1H-pyrazol-5-yl)pyridin-2-yl)amino)-1-((1r,4S)-4-methylcyclohexyl)-2-oxoethyl)-1-ethyl-1H-pyrazole-5-carboxamide]
398	Cn1nncc1C(=O)N[C@H](C(=O)Nc1ccc(-c2c(Cl)cnn2C)cn1)[C@H]1CC[C@H](C)CC1 [Example 200, N—((S)-2-((5-(4-chloro-1-methyl-1H-pyrazol-5-yl)pyridin-2-yl)amino)-1-((1r,4S)-4-methylcyclohexyl)-2-oxoethyl)-1-methyl-1H-1,2,3-triazole-5-carboxamide]

Continued, molecule first:

Compound	IC50 [nM]
Cn1nccc1C(=O)N[C@H](C(=O)Nc1ccc(-c2c(C3CC3)nnn2C)cn1)C1CCCCCC1 [Example 173, (S)—N-(1-cycloheptyl-2-((5-(4-cyclopropyl-1-methyl-1H-1,2,3-triazol-5-yl)pyridin-2-yl)amino)-2-oxoethyl)-1-methyl-1H-pyrazole-5-carboxamide]	158
Cn1nccc1C(=O)N[C@H](C(=O)Nc1ccc(-c2c(Cl)cnn2C)cn1)C1CCCCCC1 [Example 174, (S)—N-(2-((5-(4-chloro-1-methyl-1H-pyrazol-5-yl)pyridin-2-yl)amino)-1-cycloheptyl-2-oxoethyl)-1-methyl-1H-pyrazole-5-carboxamide]	158
CCc1nocc1C(=O)N[C@H](C(=O)Nc1ccc(-c2c(Cl)cnn2C)cn1)C1CCCCCC1 [Example 175, (S)—N-(2-((5-(4-chloro-1-methyl-1H-pyrazol-5-yl)pyridin-2-yl)amino)-1-cycloheptyl-2-oxoethyl)-3-ethylisoxazole-4-carboxamide]	31.6
CCn1nccc1C(=O)N[C@H](C(=O)Nc1ccc(-c2c(Cl)cnn2C)cn1)C1CCCCCC1 [Example 176, (S)—N-(2-((5-(4-chloro-1-methyl-1H-pyrazol-5-yl)pyridin-2-yl)amino)-1-cycloheptyl-2-oxoethyl)-1-ethyl-1H-pyrazole-5-carboxamide]	39.8
Cc1cnn(C)c1-c1ccc(NC(=O)[C@@H](NC(=O)c2ccnn2C)C2CCCCC2)nc1 [Example 177, (S)—N-(1-cyclohexyl-2-((5-(1,4-dimethyl-1H-pyrazol-5-yl)pyridin-2-yl)amino)-2-oxoethyl)-1-methyl-1H-pyrazole-5-carboxamide]	200
CCc1nocc1C(=O)N[C@H](C(=O)Nc1ccc(-c2c(C)cnn2C)cn1)C1CCCCC1 [Example 178, (S)—N-(1-cyclohexyl-2-((5-(1,4-dimethyl-1H-pyrazol-5-yl)pyridin-2-yl)amino)-2-oxoethyl)-3-ethylisoxazole-4-carboxamide]	79.4
Cc1cnn(C)c1-c1ncc(NC(=O)[C@@H](NC(=O)c2ccnn2C)[C@H]2CC[C@H](C)CC2)cc1F [Example 179, N—((S)-2-((6-(1,4-dimethyl-1H-pyrazol-5-yl)-5-fluoropyridin-3-yl)amino)-1-((1r,4S)-4-methylcyclohexyl)-2-oxoethyl)-1-methyl-1H-pyrazole-5-carboxamide]	501
CCc1nocc1C(=O)N[C@H](C(=O)Nc1cnc(-c2c(C)cnn2C)c(F)c1)[C@H]1CC[C@H](C)CC1 [Example 180, N—((S)-2-((6-(1,4-dimethyl-1H-pyrazol-5-yl)-5-fluoropyridin-3-yl)amino)-1-((1r,4S)-4-methylcyclohexyl)-2-oxoethyl)-3-ethylisoxazole-4-carboxamide]	158
Cc1cnn(C)c1-c1ccc(NC(=O)[C@@H](NC(=O)c2conc2C)C2CCCCC2)nc1 [Example 181, (S)—N-(1-cyclohexyl-2-((5-(1,4-dimethyl-1H-pyrazol-5-yl)pyridin-2-yl)amino)-2-oxoethyl)-3-methylisoxazole-4-carboxamide]	158
Cn1nccc1C(=O)N[C@H](C(=O)Nc1ccc(-c2c(CO)cnn2C)cn1)C1CCCCCC1 [Example 182, (S)—N-(1-cycloheptyl-2-((5-(4-(hydroxymethyl)-1-methyl-1H-pyrazol-5-yl)pyridin-2-yl)amino)-2-oxoethyl)-1-methyl-1H-pyrazole-5-carboxamide]	31.6
Cc1cnn(C)c1-c1ccc(NC(=O)C(NC(=O)c2ccnn2C)C2CC3CCC2C3)nc1 (centres unmarked) [Example 184, N-(1-(bicyclo[2.2.1]heptan-2-yl)-2-((5-(1,4-dimethyl-1H-pyrazol-5-yl)pyridin-2-yl)amino)-2-oxoethyl)-1-methyl-1H-pyrazole-5-carboxamide]	251
Cc1cnn(C)c1-c1ccc(NC(=O)C(NC(=O)c2ccnn2C)[C@H]2CC[C@H](C(F)(F)F)CC2)nc1 (some centres unmarked) [Example 185, N-(2-((5-(1,4-dimethyl-1H-pyrazol-5-yl)pyridin-2-yl)amino)-2-oxo-1-((1r,4r)-4-(trifluoromethyl)cyclohexyl)ethyl)-1-methyl-1H-pyrazole-5-carboxamide]	631
CCn1nccc1C(=O)NC(C(=O)Nc1ccc(-c2c(C)cnn2C)cn1)[C@H]1CC[C@H](C(F)(F)F)CC1 (some centres unmarked) [Example 186, N-(2-((5-(1,4-dimethyl-1H-pyrazol-5-yl)pyridin-2-yl)amino)-2-oxo-1-((1r,4r)-4-(trifluoromethyl)cyclohexyl)ethyl)-1-ethyl-1H-pyrazole-5-carboxamide]	398
CCc1nocc1C(=O)NC(C(=O)Nc1ccc(-c2c(C)cnn2C)cn1)[C@H]1CC[C@H](C(F)(F)F)CC1 (some centres unmarked) [Example 187, N-(2-((5-(1,4-dimethyl-1H-pyrazol-5-yl)pyridin-2-yl)amino)-2-oxo-1-((1r,4r)-4-(trifluoromethyl)cyclohexyl)ethyl)-3-ethylisoxazole-4-carboxamide]	398
CCc1nocc1C(=O)N[C@H](C(=O)Nc1ccc(-c2c(C)nnn2C)cn1)[C@H]1CC[C@H](C)CC1 [Example 188, N—((S)-2-((5-(1,4-dimethyl-1H-1,2,3-triazol-5-yl)pyridin-2-yl)amino)-1-((1r,4S)-4-methylcyclohexyl)-2-oxoethyl)-3-ethylisoxazole-4-carboxamide]	100
Cc1nnn(CC(=O)N(C)C)c1-c1ccc(NC(=O)[C@@H](NC(=O)c2ccnn2C)C2CCCCCC2)nc1 [Example 190, (S)—N-(1-cycloheptyl-2-((5-(1-(2-(dimethylamino)-2-oxoethyl)-4-methyl-1H-1,2,3-triazol-5-yl)pyridin-2-yl)amino)-2-oxoethyl)-1-methyl-1H-pyrazole-5-carboxamide]	794
